EC50 data for 39 molecules are collected here from patent US20120040977A1, “INHIBITORS OF HCV NS5A” (PRESIDIO PHARMACEUTICALS, INC., priority 2009, published 2012).

pEC50: −log10 of the molar value.

The test system of the assay is HCV genotype 1b replicon. Put plainly: HCV replicon assay (HCV 1b_Huh-Luc/Neo-ET cell line, luciferase readout). In kind it is cell-based. To be noted: Hepatitis C virus; bicistronic genotype 1b replicon in Huh 7 cells, 72 h incubation, luciferase enzyme activity; read-out: Inhibition of HCV genotype 1b. How it is done: Biological activity of the compounds of the invention was determined using an HCV replicon assay. The HCV 1b_Huh-Luc/Neo-ET cell line persistently expressing a bicistronic genotype 1b replicon in Huh 7 cells was obtained from ReBLikon GMBH. This cell line was used to test compound inhibition using luciferase enzyme activity readout as a measurement of compound inhibition of replicon levels.
On Day 1 (the day after plating cells), each compound is added in triplicate to the cells. Plates are incubated for 72 h prior to determining luciferase levels. Enzyme activity was measured using a Bright-Glo Kit (cat. number E2620) manufactured by Promega Corporation. The following equation was used to generate a percent control value for each compound.
% Control=(Average Compound Value/Average Control)*100
The EC50 value was determined using GraphPad Prism and the following equation:
Y=Bottom+(Top−Bottom)/(1+10̂((LogIC50−X)*HillSlope))
EC50 values of compounds are determined several times in the replicon assay. […]
In the case of `CC(C)(C)OC(=O)N[C@@H](C(=O)N1CCC[C@H]1COc1ccc(-c2ccc(-c3cnc([C@@H]4CCCN4C(=O)[C@H](NC(=O)OC(C)(C)C)c4ccccc4)[nH]3)cc2)cc1)c1ccccc1` [Compound 30], the pEC50 was over 9.00. On to `C[C@@H](NC(=O)C1CC1)C(=O)N1CCOC[C@H]1C(=O)Nc1ccc(-c2ccc(-c3cnc([C@@H]4COCCN4C(=O)[C@@H](C)NC(=O)C4CC4)[nH]3)cc2)cc1` [Compound 24], for which the pEC50 is 6.00 to 8.00.

For `COC(=O)N[C@@H](C(=O)N1CCC[C@H]1c1ncc(-c2ccc(-c3ccc(C(=O)NC[C@@H]4CCCN4C(=O)[C@H](NC(=O)N4CCOCC4)c4ccccc4)cc3)cc2)[nH]1)c1ccccc1` [Compound 67], the pEC50 is over 9.00. With `COC(=O)N[C@@H](C)C(=O)N1CCC[C@H]1C(=O)N[C@@H](C)c1ccc(-c2ccc(-c3cnc([C@@H]4CCCN4C(=O)[C@H](C)NC(=O)OC)[nH]3)cc2)cc1` [Compound 94] the figure was 8.00 to 9.00; with `COC(=O)N[C@H](C(=O)N1CCC[C@H]1CNC(=O)c1ccc(-c2ccc(-c3cnc([C@@H]4CCCN4C(=O)[C@@H](NC(=O)OC)[C@@H](C)OC)[nH]3)cc2)cc1)[C@@H](C)OC` [Compound 122], over 9.00. `CC(C)[C@@H](NC(=O)OC(C)(C)C)C(=O)N1CCOC[C@H]1C(=O)Nc1ccc(-c2ccc(-c3cnc([C@@H]4CCCN4C(=O)[C@H](NC(=O)OC(C)(C)C)C(C)C)[nH]3)cc2)cc1` [Compound 13]: the pEC50 was 6.00 to 8.00. With `C[C@@H](NC(=O)[C@@H]1CCCN1C(=O)[C@H](NC(=O)OC(C)(C)C)c1ccccc1)c1ccc(-c2ccc(-c3cnc([C@@H]4CCCN4C(=O)[C@H](NC(=O)OC(C)(C)C)c4ccccc4)[nH]3)cc2)cc1` [Compound 39] the figure was over 9.00. For `C[C@@H](NC(=O)C1CC1)C(=O)N1CCC[C@H]1C(=O)Nc1ccc(-c2ccc(-c3cnc([C@@H]4CCCN4C(=O)[C@@H](C)NC(=O)C4CC4)[nH]3)cc2)cc1` [Compound 28], the pEC50 was 8.00 to 9.00. With `C[C@@H](NC(=O)OC(C)(C)C)C(=O)N1CCOC[C@H]1C(=O)Nc1ccc(-c2ccc(-c3cnc([C@@H]4COCCN4C(=O)[C@@H](C)NC(=O)OC(C)(C)C)[nH]3)cc2)cc1` [Compound 17] the figure was 6.00 to 8.00.

Regarding `COC(=O)N[C@@H](C(=O)N1CCC[C@H]1C(=O)Nc1ccc(-c2ccc3nc([C@@H]4CCCN4C(=O)[C@H](NC(=O)OC)c4ccccc4)[nH]c3c2)cc1)c1ccccc1` [Compound 74], the pEC50 is over 9.00. With `COC(=O)N[C@H](C(=O)N1CCC[C@H]1C(=O)NCc1ccc(-c2ccc3nc([C@@H]4CCCN4C(=O)[C@@H](NC(=O)OC)C(C)C)[nH]c3c2)cc1)C(C)C` [Compound 87] the figure was 8.00 to 9.00; with `COC(=O)N[C@H](C(=O)N1CCC[C@H]1C(=O)N[C@@H](C)c1ccc(-c2ccc(-c3cnc([C@@H]4CCCN4C(=O)[C@@H](NC(=O)OC)C(C)C)[nH]3)cc2)cc1)C(C)C` [Compound 95], over 9.00. As for `C[C@@H](NC(=O)OC(C)(C)C)C(=O)N1CCC[C@H]1C(=O)Nc1ccc(-c2ccc(-c3cnc([C@@H]4CCCN4C(=O)[C@@H](C)NC(=O)OC(C)(C)C)[nH]3)cc2)cc1` [Compound 14], the pEC50 was 8.00 to 9.00. On to `CC(C)[C@@H](NC(=O)C1CC1)C(=O)N1CCOC[C@H]1C(=O)Nc1ccc(-c2ccc(-c3cnc([C@@H]4CCCN4C(=O)[C@H](NC(=O)C4CC4)C(C)C)[nH]3)cc2)cc1` [Compound 23], for which the pEC50 was 8.00 to 9.00. For the molecule `C=CC[C@H](NC(=O)OC)C(=O)N1CCC[C@H]1C(=O)NCc1ccc(-c2ccc(-c3cnc([C@@H]4CCCN4C(=O)[C@H](CC=C)NC(=O)OC)[nH]3)cc2)cc1` [Compound 80], the pEC50 was 8.00 to 9.00.

For `COC(=O)N[C@H](C(=O)N1CCC[C@H]1C(=O)NCc1ccc(-c2ccc(-c3cnc([C@@H]4CCCN4C(=O)[C@@H](NC(=O)OC)[C@@H](C)OC)[nH]3)cc2)cc1)[C@@H](C)OC` [Compound 106], the pEC50 was 6.00 to 8.00.

`COC(=O)N[C@H](C(=O)N1CCC[C@H]1C(=O)Nc1ccc(-c2ccc(-c3cnc([C@@H]4CCCN4C(=O)[C@@H](NC(=O)OC)C(C)C)[nH]3)cn2)cc1)C(C)C` [Compound 71]: the pEC50 was 8.00 to 9.00. With `COC(=O)N[C@H](C(=O)N1CCC[C@H]1C(=O)Nc1ccc(-c2ccc3c(ccc4nc([C@@H]5CCCN5C(=O)[C@@H](NC(=O)OC)C(C)C)[nH]c43)c2)cc1)C(C)C` [Compound 114] the figure was over 9.00; with `CC(C)(C)OC(=O)N1CCC[C@H]1C(=O)Nc1ccc(-c2ccc(-c3cnc([C@@H]4COCCN4C(=O)OC(C)(C)C)[nH]3)cc2)cc1` [Compound 5], under 6.00.

As for `COC(=O)N[C@@H](C(=O)N1CCC[C@H]1c1ncc(-c2ccc(-c3ccc(C(=O)NC[C@@H]4CCCN4C(=O)[C@H](NC(=O)N4CCN(C)CC4)c4ccccc4)cc3)cc2)[nH]1)c1ccccc1` [Compound 66], the pEC50 is over 9.00. With `O=C(N[C@@H](C(=O)N1CCC[C@H]1c1ncc(-c2ccc(Oc3ccc(-c4cnc([C@@H]5CCCN5C(=O)[C@H](NC(=O)C5CC5)c5ccccc5)[nH]4)cc3)cc2)[nH]1)c1ccccc1)C1CC1` [Compound 54] the figure was over 9.00; with `COC(=O)N[C@@H](C(=O)N1CCC[C@H]1CNC(=O)c1ccc(-c2ccc(-c3cnc([C@@H]4CCCN4C(=O)[C@H](NC(=O)OC)c4ccccc4)[nH]3)cn2)cc1)c1ccccc1` [Compound 79], over 9.00.

On to `C[C@H](NC(=O)[C@@H]1CCCN1C(=O)[C@H](NC(=O)OC(C)(C)C)c1ccccc1)c1ccc(-c2ccc(-c3cnc([C@@H]4CCCN4C(=O)[C@H](NC(=O)OC(C)(C)C)c4ccccc4)[nH]3)cc2)cc1` [Compound 34], for which the pEC50 was over 9.00. `COC(=O)N[C@@H](C)C(=O)N1CCC[C@H]1CNC(=O)c1ccc(-c2ccc(-c3cnc([C@@H]4CCCN4C(=O)[C@H](C)NC(=O)OC)[nH]3)cc2)cc1` [Compound 98]: the pEC50 was 8.00 to 9.00. `C[C@@H](NC(=O)[C@@H]1CCCN1C(=O)[C@H](NC(=O)N1CCN(C)CC1)c1ccccc1)c1ccc(-c2ccc(-c3cnc([C@@H]4CCCN4C(=O)[C@H](NC(=O)N4CCN(C)CC4)c4ccccc4)[nH]3)cc2)cc1` [Compound 42]: the pEC50 is 8.00 to 9.00. With `CC(C)[C@@H](NC(=O)C1CC1)C(=O)N1CCC[C@H]1C(=O)Nc1ccc(-c2ccc(-c3cnc([C@@H]4CCCN4C(=O)[C@H](NC(=O)C4CC4)C(C)C)[nH]3)cc2)cc1` [Compound 29] the figure was 8.00 to 9.00.

For `O=C(N[C@@H](C(=O)N1CCC[C@H]1c1ncc(-c2ccc(Sc3ccc(-c4cnc([C@@H]5CCCN5C(=O)[C@H](NC(=O)N5CCOCC5)c5ccccc5)[nH]4)cc3)cc2)[nH]1)c1ccccc1)N1CCOCC1` [Compound 51], the pEC50 is over 9.00. Next, `O=C(N[C@@H](C(=O)N1CCC[C@H]1C(=O)Nc1ccc(-c2ccc(-c3cnc([C@@H]4CCCN4C(=O)[C@H](NC(=O)C4CC4)c4ccccc4)[nH]3)cc2)cc1)c1ccccc1)C1CC1` [Compound 27]: over 9.00; `CC(C)[C@@H](NC(=O)OC(C)(C)C)C(=O)N1CCC[C@H]1C(=O)Nc1ccc(-c2ccc(-c3cnc([C@@H]4CCCN4C(=O)[C@H](NC(=O)OC(C)(C)C)C(C)C)[nH]3)cc2)cc1` [Compound 15]: 8.00 to 9.00. As to `COC(=O)N[C@H](C(=O)N[C@@H](C)c1ncc(-c2ccc(-c3ccc(C(=O)NC[C@@H]4CCCN4C(=O)[C@@H](NC(=O)OC)C(C)C)cc3)cc2)[nH]1)C(C)C` [Compound 88], the pEC50 is over 9.00. In the case of `C#CC[C@H](NC(=O)OC)C(=O)N1CCC[C@H]1C(=O)Nc1ccc(-c2ccc(-c3cnc([C@@H]4CCCN4C(=O)[C@H](CC#C)NC(=O)OC)[nH]3)cc2)cc1` [Compound 76], the pEC50 is 8.00 to 9.00.

In the case of `C[C@@H](NC(=O)[C@@H]1CCCN1C(=O)[C@H](NC(=O)C1CC1)c1ccccc1)c1ccc(-c2ccc(-c3cnc([C@@H]4CCCN4C(=O)[C@H](NC(=O)C4CC4)c4ccccc4)[nH]3)cc2)cc1` [Compound 40], the pEC50 is over 9.00.

In the case of `O=C(N[C@@H](C(=O)N1CCC[C@H]1C(=O)NCc1ccc(-c2ccc(-c3cnc([C@@H]4CCCN4C(=O)[C@H](NC(=O)C4CC4)c4ccccc4)[nH]3)cc2)cc1)c1ccccc1)C1CC1` [Compound 43], the pEC50 was over 9.00. With `COC(=O)N[C@@H](C)C(=O)N1CCC[C@H]1C(=O)N[C@H](C)c1ccc(-c2ccc(-c3cnc([C@@H]4CCCN4C(=O)[C@H](C)NC(=O)OC)[nH]3)cc2)cc1` [Compound 96] the figure was 8.00 to 9.00; with `COC(=O)N[C@H](C(=O)N1CCC[C@H]1C(=O)NCc1ccc(-c2ccc(-c3cnc([C@@H]4CCCN4C(=O)[C@@H](NC(=O)OC)C4CCOCC4)[nH]3)cc2)cc1)C1CCOCC1` [Compound 107], 6.00 to 8.00; with `COC(=O)N[C@H](C(=O)N1CCC[C@H]1CNC(=O)c1ccc(-c2ccc(-c3cnc([C@@H]4CCCN4C(=O)[C@@H](NC(=O)OC)C(C)C)[nH]3)cc2)cc1)C(C)C` [Compound 99], over 9.00. Next, `CC(C)[C@@H](NC(=O)C1CC1)C(=O)N1CCC[C@H]1C(=O)Nc1ccc(-c2ccc(-c3cnc([C@@H]4COCCN4C(=O)[C@H](NC(=O)C4CC4)C(C)C)[nH]3)cc2)cc1` [Compound 20]: 8.00 to 9.00; `COC(=O)N[C@@H](C(=O)N1CCC[C@H]1CNC(=O)c1ccc(-c2ccc(-c3cnc([C@@H]4CCCN4C(=O)[C@@H](c4ccccc4)N4CCOCC4)[nH]3)cc2)cc1)c1ccccc1` [Compound 62]: over 9.00. Next, `C[C@@H](NC(=O)C1CC1)C(=O)N1CCC[C@H]1c1ncc(-c2ccc(Oc3ccc(-c4cnc([C@@H]5CCCN5C(=O)[C@@H](C)NC(=O)C5CC5)[nH]4)cc3)cc2)[nH]1` [Compound 58]: 6.00 to 8.00.
